The nature of this assay: Tested for competitive inhibitory activity against beta-Glucosidase.

The results in this text go back to BindingDB's records for doi:10.1016/0960-894X(95)00111-6 (1995).

In the case of `COC1OC(CO)C(Sc2ccccn2)C(O)C1O` (stereo unspecified) [6-Hydroxymethyl-2-methoxy-5-(pyridin-2-ylsulfanyl)-tetrahydro-pyran-3,4-diol], the Ki (as a rule, a measure of affinity in units of concentration, obtained from inhibition or displacement) came to 8 mM.
`CO[C@@H]1O[C@@H](CO)[C@@H](Oc2cccnc2S[C@H]2[C@H](O)[C@H](O)[C@H](OC)O[C@H]2CO)[C@H](O)[C@@H]1O` returned a Ki of 5.5 mM.
`COC1OC(CO)C(Sc2ncccc2O)C(O)C1O` (stereo unspecified) [6-Hydroxymethyl-5-(3-hydroxy-pyridin-2-ylsulfanyl)-2-methoxy-tetrahydro-pyran-3,4-diol] had a Ki of 0.8 mM. This Ki is about 6.9-fold lower than that of the compound before.
As to `COC1OC(CO)C(Sc2nc(CO)ccc2O)C(O)C1O` (stereo unspecified) [5-(3-Hydroxy-6-hydroxymethyl-pyridin-2-ylsulfanyl)-6-hydroxymethyl-2-methoxy-tetrahydro-pyran-3,4-diol], the affinity corresponds to a Ki of 4 mM.
The compound `COC1OC(CO)C(Sc2nc(C)ccc2O)C(O)C1O` (stereo unspecified) [6-Hydroxymethyl-5-(3-hydroxy-6-methyl-pyridin-2-ylsulfanyl)-2-methoxy-tetrahydro-pyran-3,4-diol] displayed a Ki of 4.5 mM.
For `COC1OC(CO)C(Sc2nc(CN(C)C)ccc2O)C(O)C1O` (stereo unspecified) [5-(6-Dimethylaminomethyl-3-hydroxy-pyridin-2-ylsulfanyl)-6-hydroxymethyl-2-methoxy-tetrahydro-pyran-3,4-diol], the Ki stood at 20 mM.
